# Read-outs that look alike come from different tables or passages of the source.
# How the values were obtained:
# BTK = BTK (Homo sapiens (Human), UniProt Q06187); assay: KdELECT assay for binding affinity to BTK
# Experimental: (§1) Compounds were tested using a KdELECT assay. Kinase-tagged T7 phage strains were prepared in an E. coli host derived from the BL21 strain. E. coli were grown to log-phase and infected with T7 phage and incubated with shaking at 32° C. until lysis. The lysates were centrifuged and filtered to remove cell debris. The remaining kinases were produced in HEK-293 cells and subsequently tagged with DNA for qPCR detection. Streptavidin-coated magnetic beads were treated with biotinylated small molecule ligands for 30 minutes at room temperature to generate affinity resins for kinase assays. The liganded beads were blocked with excess biotin and washed with blocking buffer (SeaBlock (Pierce), 1% BSA, 0.05% Tween 20, 1 mM DTT) to remove unbound ligand and to reduce non-specific binding. Binding reactions were assembled by combining kinases, liganded affinity beads, and test compounds in 1× binding buffer (20% SeaBlock, 0.17×PBS, 0.05% Tween 20, 6 mM DTT). Test compounds were prepared as 111X stocks in 100% DMSO. Kd values were determined using an 11-point 3-fold compound dilution series with three DMSO control points. All compounds for Kd measurements are distributed by acoustic transfer (non-contact dispensing) in 100% DMSO. The compounds were then diluted directly into the assays such that the final concentration of DMSO was 0.9%. All reactions performed in polypropylene 384-well plate. Each was a final volume of 0.02 mL. The assay plates were incubated at room temperature with shaking for 1 hour and the affinity beads were washed with wash buffer (1×PBS, 0.05% Tween 20). The beads were then re-suspended in elution buffer (1×PBS, 0.05% Tween 20, 0.5 μM nonbiotinylated affinity ligand) and incubated at room temperature with shaking for 30 minutes. The kinase concentration in the eluates was measured by qPCR.
# HEK293 cells = assay: Cellular growth inhibition assay (CellTiter-Glo), HEK293 cells; type: cell-based; details: read-out: CTG HEK293 GI50
# Experimental: (§2) HEK293 and HeLa cells were cultured in DMEM medium supplemented with 10% fetal bovine serum and 1% Penn/Strep. Cells were seeded in white 384-well plates at 500 cells/well in […] complete medium. Following seeding, plates were spun at 300×g for three minutes and cultured at 37° C. with 5% CO2 in a humidified tissue culture incubator.
# (§3) After 24 hours, compounds were titrated in 100% DMSO and diluted in complete cell culture medium. […] of compound/media mixture was added to cells to bring total volume in well to […]. DMSO alone was used as a negative control. Plates were then spun at 300×g for three minutes and stored at 37° C. with 5% CO2 for three days.
# (§4) On Day 0 and Day 3 of compound treatment, cell viability was quantified with CellTiter-Glo 2.0 reagent (Promega). After equilibrating microplates at room temperature for 30 minutes, 25 μL CellTiter-Glo 2.0 reagent was dispensed into each well to bring total volume to […]. Plates were mixed on shaker for 2 minutes at 500 rpm, followed by a 10-minute incubation at room temperature. Following a quick spin, luminescence readings were measured with an En Vision Plate Reader. Data was normalized to DMSO treated Day 0 and Day 3 readings. A four-parameter non-linear regression curve fit was applied to dose-response data in GraphPad Prism data analysis software to determine the half maximal growth inhibitory concentration (GI50) for each compound.
# HeLa cells = assay: Cellular growth inhibition assay (CellTiter-Glo), HeLa cells; type: cell-based; details: read-out: CTG HELA GI50
# Experimental: as §2, §3, §4
# CDK9 = CDK9 (Homo sapiens (Human), UniProt P50750); assay: KdELECT assay for binding affinity to CDK9
# Chain of CDK9 (P50750 whole entry): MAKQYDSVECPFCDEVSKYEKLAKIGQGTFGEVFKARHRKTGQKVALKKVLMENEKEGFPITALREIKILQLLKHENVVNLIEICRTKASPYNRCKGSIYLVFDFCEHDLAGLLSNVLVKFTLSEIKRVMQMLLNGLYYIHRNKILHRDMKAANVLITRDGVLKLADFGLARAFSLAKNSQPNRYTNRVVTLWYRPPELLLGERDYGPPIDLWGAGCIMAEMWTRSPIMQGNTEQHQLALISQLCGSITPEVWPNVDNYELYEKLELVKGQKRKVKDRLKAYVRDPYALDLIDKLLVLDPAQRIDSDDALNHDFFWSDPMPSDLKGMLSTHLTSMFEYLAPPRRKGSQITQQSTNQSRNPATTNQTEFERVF
# Experimental: as §1, with “KdELECT.” for “KdELECT assay.”, “1×binding” for “1× binding”
# [1] = Homo sapiens, 72 h, HEK293 cells, three days of compound treatment, CellTiter-Glo 2.0
# [2] = Homo sapiens, 72 h, HeLa cells, three days of compound treatment, CellTiter-Glo 2.0
# Chain of BTK (Q06187 whole entry): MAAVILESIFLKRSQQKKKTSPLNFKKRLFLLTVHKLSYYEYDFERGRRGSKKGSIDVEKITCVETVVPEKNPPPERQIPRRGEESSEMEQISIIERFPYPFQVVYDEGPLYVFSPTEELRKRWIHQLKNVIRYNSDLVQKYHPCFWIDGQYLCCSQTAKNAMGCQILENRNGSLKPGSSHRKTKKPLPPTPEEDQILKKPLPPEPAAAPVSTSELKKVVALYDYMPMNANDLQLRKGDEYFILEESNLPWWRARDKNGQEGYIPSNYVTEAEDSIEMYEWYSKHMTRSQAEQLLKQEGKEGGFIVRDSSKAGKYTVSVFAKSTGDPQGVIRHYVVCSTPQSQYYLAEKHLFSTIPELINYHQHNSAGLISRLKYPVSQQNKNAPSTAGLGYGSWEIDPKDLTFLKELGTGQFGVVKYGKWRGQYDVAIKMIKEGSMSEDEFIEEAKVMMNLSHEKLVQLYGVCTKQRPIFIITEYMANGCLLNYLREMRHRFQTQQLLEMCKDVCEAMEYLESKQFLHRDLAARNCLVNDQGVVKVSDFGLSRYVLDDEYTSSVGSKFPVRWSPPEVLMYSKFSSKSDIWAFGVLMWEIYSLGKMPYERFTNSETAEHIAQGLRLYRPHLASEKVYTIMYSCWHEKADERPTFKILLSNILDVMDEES
GI50 (HeLa cells; [2]) [nM],Kd (CDK9) [nM],SMILES,GI50 (HEK293 cells; [1]) [nM],also measured
,50 to 500,C=CC(=O)N1CCN([C@@H](CC2CC2)c2ccc([C@H](C)Nc3ncc4c(n3)N(CCOCCOCCOc3ccc(CNc5cc(N6CCCC[C@H]6CCO)nc6c(CC)cnn56)cn3)C(=O)OC4)cc2)CC1 [Compound I-55],,
,< 50,"CCc1cnn2c(NCc3ccc(CCOCCOCCN(C)C/C=C/C(=O)N4CCC[C@@H](n5nc(-c6ccc(Oc7ccccc7)cc6)c6c(N)ncnc65)C4)nc3)cc(N3CCCC[C@H]3CCO)nc12 [Compound I-67, (E)-1-((R)-3-(4-amino-3-(4-phenoxyphenyl)-1H-pyrazolo[3,4-d]pyrimidin-1-yl)piperidin-1-yl)-4-((2-(2-(2-(5-(((3-ethyl-5-((S)-2-(2-hydroxyethyl)piperidin-1-yl)pyrazolo[1,5-a]pyrimidin-7-yl)amino)methyl)pyridin-2-yl)ethoxy)ethoxy)ethyl)(methyl)amino)but-2-en-1-one]",,Kd (BTK): < 50 nM
,500 to 2500,CCc1cnn2c(NCc3ccc(OCCOCCOCCNS(=O)(=O)c4cc(F)cc(N(C(=O)[C@@H]5CCC(=O)N5c5cc(C#N)ccn5)C(C(=O)NC5CC(F)(F)C5)c5ccccc5Cl)c4)nc3)cc(N3CCCC[C@H]3CCO)nc12 (stereo partly shown) [Compound I-92],,"GI50 (HEK293 cells; HEK293 cells, three days of compound treatment, CellTiter-Glo 2.0): < 500 nM; GI50 (HeLa cells; HeLa cells, three days of compound treatment, CellTiter-Glo 2.0): < 500 nM"
1500 to 5000,500 to 2500,"CCc1cnn2c(NCc3ccc(=O)n(CCOCCOCCNS(=O)(=O)c4cc(F)cc(N(C(=O)[C@@H]5CCC(=O)N5c5cc(C#N)ccn5)C(C(=O)NC5CC(F)(F)C5)c5ccccc5Cl)c4)c3)cc(N3CCCC[C@H]3CCO)nc12 (stereo partly drawn) [Compound I-93, (2S)—N-[1-(2-chlorophenyl)-2-[(3,3-difluorocyclobutyl)amino]-2-oxo-ethyl]-1-(4-cyano-2-pyridyl)-N-[3-[2-[2-[2-[5-[ [[3-ethyl-5-[(2S)-2-(2-hydroxyethyl)-1-piperidyl]pyrazolo[1,5-a]pyrimidin-7-yl]amino]methyl]-2-oxo-1-pyridyl]ethoxy]ethoxy]ethylsulfamoyl]-5-fluoro-phenyl]-5-oxo-pyrrolidine-2-carboxamide]",> 5000,
< 500,50 to 500,"CCc1cnn2c(NCc3ccc(OCC(=O)N4CC(=O)N(c5cc(C#N)ccn5)[C@H](C(=O)N(c5cc(F)cc(F)c5)[C@H](C(=O)NC5CC(F)(F)C5)c5ccccc5Cl)C4)nc3)cc(N3CCCC[C@H]3CCO)nc12 [Compound I-96, (2S)—N-[(1S)-1-(2-chlorophenyl)-2-[(3,3-difluorocyclobutyl)amino]-2-oxo-ethyl]-1-(4-cyano-2-pyridyl)-N-(3,5-difluorophenyl)-4-[2-[[5-[[[3-ethyl-5-[(2S)-2-(2-hydroxyethyl)-1-piperidyl]pyrazolo[1,5-a]pyrimidin-7-yl]amino]methyl]-2-pyridyl]oxy]acetyl]-6-oxo-piperazine-2-carboxamide]",< 500,
< 500,50 to 500,"CCc1cnn2c(NCc3ccc(OCCOCCOCCOCCOCC(=O)N4CC(=O)N(c5cc(C#N)ccn5)[C@H](C(=O)N(c5cc(F)cc(F)c5)C(C(=O)NC5CC(F)(F)C5)c5ccccc5Cl)C4)nc3)cc(N3CCCC[C@H]3CCO)nc12 (stereo partly drawn) [Compound I-98, (2S)—N-[1-(2-chlorophenyl)-2-[(3,3-difluorocyclobutyl)amino]-2-oxo-ethyl]-1-(4-cyano-2-pyridyl)-N-(3,5-difluorophenyl)-4-[2-[2-[2-[2-[2-[[5-[[[3-ethyl-5-[(2S)-2-(2-hydroxyethyl)-1-piperidyl]pyrazolo[1,5-a]pyrimidin-7-yl]amino]methyl]-2-pyridyl]oxy]ethoxy]ethoxy]ethoxy]ethoxy]acetyl]-6-oxo-piperazine-2-carboxamide]",< 500,

# Further lines, the compound ahead of its results:
SMILES,GI50 (HeLa cells; [2]) [nM],Kd (CDK9) [nM],GI50 (HEK293 cells; [1]) [nM],also measured
CCc1cnn2c(NCc3ccc(OCCOCCOCCOCCOCCOCCOCCOCCOCCN(C)C/C=C/C(=O)N4CCC[C@@H](n5nc(-c6ccc(Oc7ccccc7)cc6)c6c(N)ncnc65)C4)nc3)cc(N3CCCC[C@H]3CCO)nc12 [Compound I-48],1500 to 5000,,1500 to 5000,Kd (BTK): < 50 nM
CN(OCCOCCOCCOCCOCCOCCOCCOC/C=C/C(=O)N1CCC[C@@H](n2nc(-c3ccc(Oc4ccccc4)cc3)c3c(N)ncnc32)C1)C(=O)N1N=C(c2cc(F)ccc2F)SC1(CCCN)c1ccccc1 (stereo partly shown) [Compound I-51],500 to 1500,,1500 to 5000,Kd (BTK): < 50 nM
C=CC(=O)N1CCN([C@@H](CC2CC2)c2ccc([C@H](C)Nc3ncc4c(n3)N(CCOCCOCCn3cc(CNc5cc(N6CCCC[C@H]6CCO)nc6c(CC)cnn56)ccc3=O)C(=O)OC4)cc2)CC1 [Compound I-56],,50 to 500,,
C=CC(=O)N1CCN([C@@H](CC2CC2)c2ccc([C@H](C)Nc3ncc4c(n3)N(CCOCCOCCOCCOCCOCCOCCOc3ccc(CNc5cc(N6CCCC[C@H]6CCO)nc6c(CC)cnn56)cn3)C(=O)OC4)cc2)CC1 [Compound I-83],,< 50,,
"C=CC(=O)N1CCN([C@@H](CC2CC2)c2ccc([C@H](C)Nc3ncc4c(n3)N(CCOCCOCCOCCOCCOCCOCCNS(=O)(=O)c3ccc(Nc5ncc(Br)c(Nc6cccc(F)c6C(N)=O)n5)cc3)C(=O)OC4)cc2)CC1 [Compound I-86, 2-[[5-bromo-2-[4-[2-[2-[2-[2-[2-[2-[2-[7-[[(1S)-1-[4-[(1S)-2-cyclopropyl-1-(4-prop-2-enoylpiperazin-1-yl)ethyl]phenyl]ethyl]amino]-2-oxo-4H-pyrimido[4,5-d][1,3]oxazin-1-yl]ethoxy]ethoxy]ethoxy]ethoxy]ethoxy]ethoxy]ethylsulfamoyl]anilino]pyrimidin-4-yl]amino]-6-fluoro-benzamide]",,500 to 2500,,
C=CC(=O)N1CCN([C@@H](CC2CC2)c2ccc([C@H](C)Nc3ncc4c(n3)N(CCOCCOCCOCCOCCOCCOCCn3cc(CNc5cc(N6CCCC[C@H]6CCO)nc6c(CC)cnn56)ccc3=O)C(=O)OC4)cc2)CC1 [Compound I-87],,< 50,,
"CCc1cnn2c(NCc3ccc(OCCOCCOCC(=O)N4CC(=O)N(c5cc(C#N)ccn5)[C@H](C(=O)N(c5cc(F)cc(F)c5)[C@H](C(=O)NC5CC(F)(F)C5)c5ccccc5Cl)C4)nc3)cc(N3CCCC[C@H]3CCO)nc12 [Compound I-97, (2S)—N-[(1S)-1-(2-chlorophenyl)-2-[(3,3-difluorocyclobutyl)amino]-2-oxo-ethyl]-1-(4-cyano-2-pyridyl)-N-(3,5-difluorophenyl)-4-[2-[2-[2-[[5-[[[3-ethyl-5-[(2S)-2-(2-hydroxyethyl)-1-piperidyl]pyrazolo[1,5-a]pyrimidin-7-yl]amino]methyl]-2-pyridyl]oxy]ethoxy]ethoxy]acetyl]-6-oxo-piperazine-2-carboxamide]",,50 to 500,,"GI50 (HEK293 cells; Homo sapiens, HEK293, 72 h): < 500 nM; GI50 (HeLa cells; Homo sapiens, HeLa, 72 h): < 500 nM"
